Results as given in ChEMBL document CHEMBL1132821, “2,4,5-Trisubstituted imidazoles: novel nontoxic modulators of P-glycoprotein mediated multidrug resistance. Part 1” (Bioorg Med Chem Lett, 2000).

How the values were obtained:
NCI/ADR-RES [1] = experiment: Compound (1 uM) was evaluated for the inhibition of cell growth in MCF-7/ADR* cell line (over expresses Pgp and is for Doxorubicin resistant) in the presence of vinblastine; format: functional; conditions: Homo sapiens, read-out: ED50 (the source's name)
NCI/ADR-RES [2] = experiment: Compound (1 uM) was evaluated for the inhibition of cell growth in MCF-7/ADR* cell line (over expresses Pgp and is for Doxorubicin resistant) in the presence of Taxol; format: functional; conditions: Homo sapiens, read-out: ED50 (the source's name)
MES-SA/Dx5 [3] = experiment: Compound (1 uM) was evaluated for the inhibition of cell growth in MES-SA/DX5** cell line (over expresses Pgp and is for Doxorubicin resistant) in the presence of doxorubicin; format: functional; conditions: Homo sapiens, read-out: ED50 (the source's name)
MES-SA/Dx5 [4] = experiment: Compound (1 uM) was evaluated for the inhibition of cell growth in MES-SA/DX5** cell line (over expresses Pgp and is for Doxorubicin resistant) in the presence of taxol; format: functional; conditions: Homo sapiens, read-out: ED50 (the source's name)
[5] = target: ATP-dependent translocase ABCB1 (Homo sapiens, UniProt P08183); experiment: Evaluated for inhibition of growth of CEM/VLB1000 cell line using multidrug resistance (MDR) potentiation assay
Sequence of ATP-dependent translocase ABCB1 (P08183 whole entry): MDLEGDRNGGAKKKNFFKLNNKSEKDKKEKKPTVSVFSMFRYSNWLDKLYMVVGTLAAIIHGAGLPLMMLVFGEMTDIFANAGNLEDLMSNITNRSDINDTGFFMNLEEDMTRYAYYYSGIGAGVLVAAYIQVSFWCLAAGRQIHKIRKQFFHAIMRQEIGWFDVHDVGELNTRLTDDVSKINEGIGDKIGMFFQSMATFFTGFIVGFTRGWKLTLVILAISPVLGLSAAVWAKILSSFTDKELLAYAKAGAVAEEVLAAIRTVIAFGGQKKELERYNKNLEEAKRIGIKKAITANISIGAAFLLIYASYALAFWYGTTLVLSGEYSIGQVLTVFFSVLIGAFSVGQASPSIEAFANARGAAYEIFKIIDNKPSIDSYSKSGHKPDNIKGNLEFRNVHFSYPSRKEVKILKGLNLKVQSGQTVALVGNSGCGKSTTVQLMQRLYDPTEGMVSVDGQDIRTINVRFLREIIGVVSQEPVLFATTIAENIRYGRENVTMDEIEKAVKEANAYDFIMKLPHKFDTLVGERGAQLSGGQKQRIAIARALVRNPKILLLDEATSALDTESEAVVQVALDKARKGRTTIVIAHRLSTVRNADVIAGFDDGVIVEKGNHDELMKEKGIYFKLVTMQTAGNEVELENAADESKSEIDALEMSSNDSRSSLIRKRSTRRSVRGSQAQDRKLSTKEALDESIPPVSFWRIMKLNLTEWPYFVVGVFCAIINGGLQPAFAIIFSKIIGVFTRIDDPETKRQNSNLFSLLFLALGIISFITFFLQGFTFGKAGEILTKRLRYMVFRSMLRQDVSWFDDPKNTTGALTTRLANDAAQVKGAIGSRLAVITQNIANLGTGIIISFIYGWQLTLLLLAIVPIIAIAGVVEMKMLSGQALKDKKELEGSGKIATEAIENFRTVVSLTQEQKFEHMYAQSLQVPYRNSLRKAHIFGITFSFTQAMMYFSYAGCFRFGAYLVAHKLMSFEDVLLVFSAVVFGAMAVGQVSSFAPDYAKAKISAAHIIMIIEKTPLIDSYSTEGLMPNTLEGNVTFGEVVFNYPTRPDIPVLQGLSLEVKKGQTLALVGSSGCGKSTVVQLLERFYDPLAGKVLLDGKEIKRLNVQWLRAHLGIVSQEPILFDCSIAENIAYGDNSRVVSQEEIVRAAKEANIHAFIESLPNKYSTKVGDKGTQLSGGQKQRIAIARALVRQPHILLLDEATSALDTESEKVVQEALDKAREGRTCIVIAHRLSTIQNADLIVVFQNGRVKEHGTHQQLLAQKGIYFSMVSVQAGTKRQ

NCI/ADR-RES [6] = experiment: Compound (1 uM) was evaluated for the inhibition of cell growth in MCF-7/ADR cell line (over expresses Pgp and is for Doxorubicin resistant) in the presence of Taxol; format: functional; conditions: Homo sapiens, read-out: ED50 (the source's name)
NCI/ADR-RES [7] = experiment: Compound (1 uM) was evaluated for the inhibition of cell growth in MCF-7/ADR cell line (over expresses Pgp and is for Doxorubicin resistant) in the presence of vinblastine; format: functional; conditions: Homo sapiens, read-out: ED50 (the source's name)
MES-SA/Dx5 [8] = experiment: Compound (1 uM) was evaluated for the inhibition of cell growth in MES-SA/DX5 cell line (over expresses Pgp and is Doxorubicin resistant) in the presence of doxorubicin; format: functional; conditions: Homo sapiens, read-out: ED50 (the source's name)
MES-SA/Dx5 [9] = experiment: Compound (1 uM) was evaluated for the inhibition of cell growth in MES-SA/DX5 cell line (over expresses Pgp and is for Doxorubicin resistant) in the presence of taxol; format: functional; conditions: Homo sapiens, read-out: ED50 (the source's name)

SMILES | GI50 ([5]; read-out: ED50) | further results
CC(C)OC(=O)/C=C/c1ccc(-c2nc(-c3ccc(N(C)C)cc3)c(-c3ccc(N(C)C)cc3)[nH]2)cc1 |  | EC50 (NCI/ADR-RES [1]): 0.028 µg/mL; EC50 (NCI/ADR-RES [2]): 0.15 µg/mL; EC50 (MES-SA/Dx5 [3]): 0.34 µg/mL; EC50 (MES-SA/Dx5 [4]): 0.13 µg/mL
CCCCCCn1c(-c2ccc(C(=O)OC)cc2)nc(-c2ccc(N(C)C)cc2)c1-c1ccc(N(C)C)cc1 |  | GI50 [5]: 6000 nM
CN(C)c1ccc(-c2nc(-c3ccc(/C=C/C(=O)O)cc3)n(CCc3ccccc3)c2-c2ccc(N(C)C)cc2)cc1 | 20000 nM | 
COC(=O)C1CC1c1ccc(-c2nc(-c3ccc(N(C)C)cc3)c(-c3ccc(N(C)C)cc3)[nH]2)cc1 (stereo unspecified) | 310 nM | 
CN(C)c1ccc(-c2nc(-c3ccc(/C=C/C(=O)O)cc3)[nH]c2-c2ccc(N(C)C)cc2)cc1 | 10000 nM | 
COCCCCc1ccc(-c2nc(-c3ccc(N(C)C)cc3)c(-c3ccc(N(C)C)cc3)[nH]2)cc1 | 1100 nM | 
CN(C)c1ccc(-c2nc(-c3ccc(O)cc3)n(CCc3ccccc3)c2-c2ccc(N(C)C)cc2)cc1 | 1000 nM | 
COc1ccc(CCN(C)CCCC(C#N)(c2ccc(OC)c(OC)c2)C(C)C)cc1OC (stereo unspecified) |  | EC50 (NCI/ADR-RES [1]): 0.251 µg/mL; EC50 (NCI/ADR-RES [2]): 2.5 µg/mL; EC50 (MES-SA/Dx5 [3]): 3 µg/mL; EC50 (MES-SA/Dx5 [4]): 2.5 µg/mL
COC(=O)/C=C/c1ccc(-c2nc(-c3ccc(N(C)C)cc3)c(-c3ccc(N(C)C)cc3)[nH]2)cc1 | 300 nM | 
CN(C)C/C=C/c1ccc(-c2nc(-c3ccc(N(C)C)cc3)c(-c3ccc(N(C)C)cc3)[nH]2)cc1 | 1300 nM | 
CN(C)c1ccc(-c2nc(-c3ccc(C(=O)O)cc3)n(CCc3ccccc3)c2-c2ccc(N(C)C)cc2)cc1 | 10000 nM | 
COCCCc1ccc(-c2nc(-c3ccc(N(C)C)cc3)c(-c3ccc(N(C)C)cc3)[nH]2)cc1 | 300 nM | 
CN(C)c1ccc(-c2nc(-c3ccc(/C=C/C#N)cc3)[nH]c2-c2ccc(N(C)C)cc2)cc1 | 600 nM | 
CN(C)c1ccc(-c2nc(-c3ccc(C(=O)O)cc3)[nH]c2-c2ccc(N(C)C)cc2)cc1 | 60000 nM | 
COC/C=C/c1ccc(-c2nc(-c3ccc(N(C)C)cc3)c(-c3ccc(N(C)C)cc3)[nH]2)cc1 | 130 nM | 
CCCCOC/C=C/c1ccc(-c2nc(-c3ccc(N(C)C)cc3)c(-c3ccc(N(C)C)cc3)[nH]2)cc1 |  | GI50 [5]: 110 nM
CCN(CC)C(=O)OC/C=C/c1ccc(-c2nc(-c3ccc(N(C)C)cc3)c(-c3ccc(N(C)C)cc3)[nH]2)cc1 |  | GI50 [5]: 880 nM
CCCCC(=O)OC/C=C/c1ccc(-c2nc(-c3ccc(N(C)C)cc3)c(-c3ccc(N(C)C)cc3)[nH]2)cc1 | 480 nM | 
COC(=O)CCc1ccc(-c2nc(-c3ccc(N(C)C)cc3)c(-c3ccc(N(C)C)cc3)[nH]2)cc1 | 1000 nM | 
CN(C)c1ccc(-c2nc(-c3ccc(/C=C/COCc4ccccc4)cc3)[nH]c2-c2ccc(N(C)C)cc2)cc1 | 300 nM | 
CCCCCCn1c(-c2ccc(C(=O)O)cc2)nc(-c2ccc(N(C)C)cc2)c1-c1ccc(N(C)C)cc1 | 2000 nM | 
COC(=O)c1ccc(-c2nc(-c3ccc(N(C)C)cc3)c(-c3ccc(N(C)C)cc3)[nH]2)cc1 | 600 nM | 
CN(C)c1ccc(-c2nc(-c3ccc(O)cc3)[nH]c2-c2ccc(N(C)C)cc2)cc1 | 5000 nM | 
CCOC/C=C/c1ccc(-c2nc(-c3ccc(N(C)C)cc3)c(-c3ccc(N(C)C)cc3)[nH]2)cc1 | 80 nM | EC50 (NCI/ADR-RES [6]): 0.036 µg/mL; EC50 (NCI/ADR-RES [7]): 0.01 µg/mL; EC50 (MES-SA/Dx5 [8]): 0.089 µg/mL; EC50 (MES-SA/Dx5 [9]): 0.024 µg/mL
COCCOC/C=C/c1ccc(-c2nc(-c3ccc(N(C)C)cc3)c(-c3ccc(N(C)C)cc3)[nH]2)cc1 | 90 nM | 
CN(C)c1ccc(-c2nc(-c3ccc(/C=C/COc4ccccc4)cc3)[nH]c2-c2ccc(N(C)C)cc2)cc1 | 450 nM | 
